Measurements reported in the NIST ThermoML archive (doi:10.1021/je9001027).
± gives the expanded uncertainty stated by the source.

Columns and labels:
[1] = cn = amount concentration of the nth substance listed, in mol/dm3; settings: 101 kPa, Liquid
[2] = wn = mass fraction of the nth substance listed; settings: 101 kPa, Liquid
[3] = 101 kPa, Liquid

[Br-].[Rb+] [rubidium bromide] + O
[1]
Settings | mass density, 298.15 K [kg/m3] | mass density, 303.15 K [kg/m3] | mass density, 308.15 K [kg/m3] | viscosity, 298.15 K [mPa·s] | viscosity, 303.15 K [mPa·s] | viscosity, 318.15 K [mPa·s]
c1 = 0.01 | 996.69 ± 16 | 996.08 ± 17 | 989.87 ± 17 | 0.893 ± 0.09 | 0.8934 ± 0.09 | 0.5367 ± 0.059
c1 = 0.013 | 996.84 ± 16 | 996.08 ± 17 | 989.89 ± 17 | 0.8935 ± 0.09 | 0.8937 ± 0.09 | 0.537 ± 0.059
c1 = 0.02 | 997.03 ± 16 | 996.14 ± 17 | 989.99 ± 17 | 0.8953 ± 0.09 | 0.8943 ± 0.09 | 0.5375 ± 0.059
c1 = 0.024 | – | – | 990.03 ± 17 | – | – | 0.5378 ± 0.059
c1 = 0.025 | 997.28 ± 16 | 996.17 ± 17 | – | 0.8962 ± 0.09 | 0.8946 ± 0.09 | –
c1 = 0.034 | – | – | – | – | – | 0.5383 ± 0.059
c1 = 0.035 | – | – | 990.13 ± 17 | – | – | –
c1 = 0.038 | 997.79 ± 16 | 996.24 ± 16 | – | 0.8966 ± 0.09 | 0.895 ± 0.09 | –

[Br-].[Rb+] [rubidium bromide] + C[S+](C)[O-]
[1]
Settings | mass density, 298.15 K [kg/m3] | mass density, 303.15 K [kg/m3] | mass density, 308.15 K [kg/m3] | mass density, 313.15 K [kg/m3] | mass density, 318.15 K [kg/m3] | viscosity, 298.15 K [mPa·s] | viscosity, 303.15 K [mPa·s] | viscosity, 308.15 K [mPa·s] | viscosity, 313.15 K [mPa·s] | viscosity, 318.15 K [mPa·s]
c1 = 0.011 | 1096.9 ± 18 | 1092.54 ± 18 | 1087.75 ± 19 | 1087.75 ± 20 | 1096.42 ± 21 | 1.997 ± 0.18 | 1.839 ± 0.17 | 1.682 ± 0.16 | 1.587 ± 0.15 | 1.515 ± 0.14
c1 = 0.02 | 1098.3 ± 18 | 1097.71 ± 19 | – | 1088.77 ± 20 | 1096.52 ± 21 | 2.019 ± 0.19 | 1.861 ± 0.17 | – | 1.604 ± 0.15 | 1.531 ± 0.14
c1 = 0.024 | – | – | 1088.77 ± 19 | – | – | – | – | 1.701 ± 0.16 | – | –
c1 = 0.026 | – | 1106.91 ± 19 | – | – | – | – | 1.877 ± 0.17 | – | – | –
c1 = 0.027 | 1100.1 ± 18 | – | 1088.97 ± 19 | – | 1096.58 ± 21 | 2.039 ± 0.19 | – | 1.712 ± 0.16 | – | 1.542 ± 0.15
c1 = 0.028 | – | – | – | 1089.77 ± 20 | – | – | – | – | 1.615 ± 0.15 | –
c1 = 0.03 | 1100.4 ± 18 | 1110.93 ± 19 | 1089.97 ± 19 | 1089.97 ± 20 | 1096.6 ± 21 | 2.047 ± 0.19 | 1.884 ± 0.17 | 1.722 ± 0.16 | 1.62 ± 0.15 | 1.549 ± 0.15
c1 = 0.046 | 1102.5 ± 18 | – | – | 1091.97 ± 20 | – | 2.085 ± 0.19 | – | – | 1.659 ± 0.16 | –
c1 = 0.056 | – | 1134.93 ± 20 | 1091.97 ± 19 | – | 1096.9 ± 21 | – | 1.923 ± 0.18 | 1.759 ± 0.16 | – | 1.581 ± 0.15

C[S+](C)[O-] [dimethyl sulfoxide] + O
[2]
Settings | mass density, 298.15 K [kg/m3] | mass density, 303.15 K [kg/m3] | mass density, 308.15 K [kg/m3] | mass density, 313.15 K [kg/m3] | mass density, 318.15 K [kg/m3] | viscosity, 298.15 K [mPa·s] | viscosity, 303.15 K [mPa·s] | viscosity, 308.15 K [mPa·s] | viscosity, 313.15 K [mPa·s] | viscosity, 318.15 K [mPa·s]
w1 = 0.2 | 1024.2 ± 16 | 1019.7 ± 17 | 1015.2 ± 18 | 998.4 ± 18 | 979.2 ± 18 | 1.34 ± 0.13 | – | 1.054 ± 0.1 | 0.9572 ± 0.095 | 0.8482 ± 0.086
w1 = 0.4 | 1053.47 ± 17 | 1052.47 ± 18 | 1045.3 ± 18 | 1040.12 ± 19 | 1038.01 ± 20 | 2.221 ± 0.2 | 2.221 ± 0.2 | 1.921 ± 0.18 | 1.618 ± 0.15 | 1.497 ± 0.14
w1 = 0.5 | 1067.81 ± 17 | 1062.43 ± 18 | 1056.4 ± 18 | 1048.28 ± 19 | 1047.52 ± 20 | 2.807 ± 0.25 | 2.465 ± 0.22 | 2.28 ± 0.21 | 2.14 ± 0.2 | 1.937 ± 0.18
w1 = 0.6 | 1082.31 ± 18 | 1081.11 ± 18 | 1072.8 ± 19 | 1065.21 ± 19 | 1057.1 ± 20 | 3.421 ± 0.3 | 3.421 ± 0.3 | 3.105 ± 0.28 | 2.846 ± 0.26 | 2.775 ± 0.25
w1 = 0.7 | 1087.32 ± 18 | 1084.92 ± 18 | 1080.83 ± 19 | 1075.23 ± 20 | 1067.12 ± 20 | 2.357 ± 0.21 | – | 2.081 ± 0.19 | 1.927 ± 0.18 | 1.865 ± 0.17
w1 = 1 | 1095.41 ± 18 | 1090.13 ± 18 | 1085.38 ± 19 | 1080.58 ± 20 | 1074.5 ± 20 | 1.966 ± 0.18 | 1.809 ± 0.17 | 1.652 ± 0.15 | 1.559 ± 0.15 | 1.488 ± 0.14

C[S+](C)[O-] [dimethyl sulfoxide]
[3]
Settings | mass density [kg/m3] | viscosity [mPa·s]
298.15 K | 1095.41 ± 9 | 1.966 ± 0.18
303.15 K | 1090.13 ± 9.3 | 1.809 ± 0.17
308.15 K | 1085.38 ± 9.7 | 1.652 ± 0.15
313.15 K | 1080.58 ± 10 | 1.559 ± 0.15
318.15 K | 1074.5 ± 10 | 1.488 ± 0.14

O [water] + C[S+](C)[O-]
[2], w2 = 0
Settings | mass density [kg/m3] | viscosity [mPa·s]
298.15 K | – | 0.89 ± 0.089
303.15 K | – | 0.8003 ± 0.082
308.15 K | 983.66 ± 17 | 0.7591 ± 0.078
313.15 K | – | 0.6214 ± 0.066
318.15 K | – | 0.5346 ± 0.059
